These results are taken from EP3638670B1, “SUBSTITUTED PYRROLOPYRIDINE-DERIVATIVES AS MAP4K1 MODULATORS FOR THE TREATMENT OF CANCER DISEASES” (Bayer Pharma Aktiengesellschaft, priority 2017, dated 2018).

The target in assay [1] is T1, MAP4K1 (Homo sapiens, UniProt Q92918).
T1 construct: A recombinant fusion protein of N-terminal GST and full-length human; made in house; host or cells: baculovirus-infected SF9 insect cells
Nature of the assay: TR-FRET-based binding competition assay (Tracer 222, GST-fusion protein). Conditions: inhibition of binding of Tracer 222 (15 nM) to GST-fusion protein (1 nM), 30 min at 22°C. The source says:
The ability of the compounds of the present invention to inhibit the binding of an Alexa647-labelled ATP-competitive kinase inhibitor to a Glutathione-S-transferase- (GST-) fusion protein was quantified employing the TR-FRET-based binding competition assay as described in the following paragraphs.
A recombinant fusion protein of N-terminal GST and full-length human , expressed by baculovirus infected SF9 insect cells and purified by Glutathione Sepharose affinity chromatography, was used as GST- fusion protein. Tracer 222 from Invitrogen (catalogue no. PR9198A) was used as Alexa647-labelled ATP-competitive kinase inhibitor. For the assay 50 nl of a 100fold concentrated solution of the test compound in DMSO was pipetted into either a black low volume 384well microtiter plate or a black 1536well microtiter plate (both Greiner Bio-One, Frickenhausen, Germany), 3 µl solution of Tracer 222 (25 nM => final concentration in 5 µl assay volume is 15 nM) in aqueous assay buffer [25 mM Tris/HCI pH 7.5, 10 mM MgCl2, 5 mM β-glycerolphosphate, 2.5 mM dithiothreitol, 0.5 mM ethylene glycol-bis(2-aminoethylether)-N,N,N',N'-tetraacetic acid [EGTA], 0.5 mM sodium orthovanadate, 0.01 % (w/v) bovine serum albumin [BSA], 0.005% (w/v) Pluronic F-127 (Sigma)] were added. Then the binding competition was started by the addition of 2 µl of a solution of the GST- fusion protein (2.5 nM => final conc. in the 5 µl assay volume is 1 nM) and of Anti-GST-Tb (1.25 nM => final conc. in the 5 µl assay volume is 0.5 nM), a Lumi4®-Tb Cryptate-conjugated anti-GST-antibody from Cisbio Bioassays (France), in assay buffer.
The resulting mixture was incubated 30 min at 22°C to allow the formation of a complex between the Tracer 222, the fusion protein and Anti-GST-Tb. Subsequently the amount of this complex was evaluated by measurement of the resonance energy transfer from the Tb-cryptate to the Tracer 222. Therefore, the fluorescence emissions at 620 nm and 665 nm after excitation at 350 nm were measured in a TR-FRET reader, e.g. a Pherastar (BMG Labtechnologies, Offenburg, Germany) or a Viewlux (Perkin-Elmer). The ratio of the emissions at 665 nm and at 622 nm was taken as the measure for the amount of the complex. The data were normalised (assay reaction without inhibitor = 0 % inhibition, all other assay components but GST- fusion protein = 100 % inhibition). […] Table 1: Measured IC50 values of compounds regarding inhibition

In assay [2] the test system is pSer376-SLP-76. Nature of the assay: Phosphorylation assay in human cell line (pSer376-SLP-76, capillary electrophoresis). The format is cell-based. Conditions: 0.5 h, Jurkat E6.1 cells overexpressing FLAG-tagged SLP-76, a-CD3 (OKT3) stimulation, 30 min at 37 °C; for activity at 10 µM: 10µM compound, read-out: % amount of pSer376-SLP-76 @ 10µM; for activity at 20 µM: 20µM compound, read-out: % amount of pSer376-SLP-76 @ 20µM. Here is the method: Phosphorylation assays were carried out in Jurkat E6.1 cells from American Type Culture Collection (ATCC) stably overexpressing human FLAG-tagged SLP-76 (proprietary). Cultured cells were kept in RPMI 1640 medium supplemented with 1% FCS at a cell density of 2x 10e6/mL 24h prior compound testing. Starved cells were simultaneously treated with 350 ng/mL a-CD3 antibody (clone OKT3. ebioscience #16-0037-85. plate-bound) and test compound for 30 min at 37 °C. Applied compounds were tested at either fixed concentration of 10 µmol/L and 20 µmol/L or in a 8 point dose response titration of increase compound concentration with 10 nmol/L. 50 nmol/L. 100 nmol/L. 500 nmol/L. 1 µmol/L. 5 µmol/L. 10 µmol/L and 20 µmol/L in triplicates. The cells were washed once in phosphate-buffered saline (pH 7.4). Cells were lysed using a lysis buffer containing 50 mmol/L Tris-CI (pH 7.5). 150 mM NaCl. 2 mM EDTA. 1% Triton-X 100. 0.5 % Na-DOC. 0.1% SDS. 1/10 complete mini protease inhibitor cocktail (Roche #11836170001) and 1/10 PhosSTOP phosphatase inhibitor cocktail (Roche #04906837001). A total of 1.25 µg cell lysate was analyzed by capillary electrophoresis using the Peggy Sue™ System (proteinsimple® San Jose. CA USA) with a 12-230kDa sizebased master kit with split buffer / a-rabbit-HRP #PS-MK18 / a-mouse-HRP #PS-MK19 according to manufacture's protocol. Probe antibodies used were a rabbit monoclonal antibody supernatant raised against human phospho-Ser376-SLP-76 peptide (proprietary) and for mormalization an a-alpha-Tubulin. mouse monoclonal antibody (Sigma #T9026). As control for maximal effect (max control. which represent the maximally possible inhibition of pSer376-SLP-76 by a test compound) cells with no a-CD3 (clone OKT3. ebioscience #16-0037-85. plate-bound) and no test compound treatment were used. Cells with a-CD3 treatment only were used as negative control (min control. which represent the minimally possible inhibition of pSer376-SLP-76 by a test compound)
AUC values of each respective test sample were normalized using the AUC of housekeeping gene alpha-Tubulin and AUC of pSer376-SLP-76 of the min control. The percentage of the amount of pSer-SLP-76 in the treatment samples was calculated using the max control and min control values of the respective Peggy Sue™ run. Table 3: Measured % amount of pSer376-SLP-76 of compound

T1 sequence (Q92918 whole entry, the tested form may be a part): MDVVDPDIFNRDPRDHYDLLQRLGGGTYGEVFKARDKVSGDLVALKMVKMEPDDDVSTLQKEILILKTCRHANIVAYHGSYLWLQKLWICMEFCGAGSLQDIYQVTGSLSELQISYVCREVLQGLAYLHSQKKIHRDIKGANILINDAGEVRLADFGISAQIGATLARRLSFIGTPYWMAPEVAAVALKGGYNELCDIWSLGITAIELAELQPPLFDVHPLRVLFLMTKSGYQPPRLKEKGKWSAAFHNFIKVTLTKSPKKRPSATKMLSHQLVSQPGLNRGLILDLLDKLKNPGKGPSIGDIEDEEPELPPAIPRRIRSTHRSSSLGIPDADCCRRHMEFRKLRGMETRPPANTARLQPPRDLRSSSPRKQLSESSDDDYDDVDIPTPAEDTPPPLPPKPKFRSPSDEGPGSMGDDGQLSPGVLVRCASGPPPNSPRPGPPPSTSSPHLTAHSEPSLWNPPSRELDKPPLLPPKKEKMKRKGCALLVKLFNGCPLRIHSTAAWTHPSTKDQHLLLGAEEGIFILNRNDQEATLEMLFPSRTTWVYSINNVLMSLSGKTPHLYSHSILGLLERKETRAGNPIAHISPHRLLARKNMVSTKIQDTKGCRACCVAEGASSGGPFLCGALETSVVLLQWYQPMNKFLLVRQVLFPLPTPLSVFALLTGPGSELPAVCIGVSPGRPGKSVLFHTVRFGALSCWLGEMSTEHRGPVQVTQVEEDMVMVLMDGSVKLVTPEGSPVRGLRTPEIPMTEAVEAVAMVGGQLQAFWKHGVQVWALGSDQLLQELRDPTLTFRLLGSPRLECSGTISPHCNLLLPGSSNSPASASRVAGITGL

In the case of `O=C(NCCCN1CCOCC1)Nc1ccc(Oc2ccnc3[nH]cc(C(F)(F)F)c23)c(C(F)(F)F)c1` [Example 2, 1-[3-(morpholin-4-yl)propyl]-3-[3-(trifluoromethyl)-4-{[3-(trifluoromethyl)-1H-pyrrolo[2,3-b]pyridin-4-yl]oxy}phenyl]urea], the IC50 in assay [1] stood at 56.2 nM. Moreover, in assay [2], the activity at 10 µM was found to be 25.1% and the activity at 20 µM turned out to be 6.5%.
The like results for `O=C(NCCCN1CCOCC1)Nc1ccc(Oc2ccnc3[nH]cc(Cl)c23)c(C(F)(F)F)c1` [Example 6, 1-{4-[(3-chloro-1H-pyrrolo[2,3-b]pyridin-4-yl)oxy]-3-(trifluoromethyl)phenyl}-3-[3-(morpholin-4-yl)propyl]urea] were, in that order, 158 nM, 69.9% and 29.5%.
`O=C(NCCN1CCOCC1)Nc1ccc(Oc2ccnc3[nH]cc(C(F)(F)F)c23)c(OC(F)(F)F)c1` [Example 13, 1-[2-(morpholin-4-yl)ethyl]-3-[3-(trifluoromethoxy)-4-{[3-(trifluoromethyl)-1H-pyrrolo[2,3-b]pyridin-4-yl]oxy}phenyl]urea] returned an IC50 in assay [1] of 439 nM. This counts as sub-micromolar.
In the case of `O=C(NCCN1CCOCC1)Nc1ccc(Oc2ccnc3[nH]cc(Cl)c23)c(C(F)(F)F)c1` [Example 7, 1-{4-[(3-chloro-1H-pyrrolo[2,3-b]pyridin-4-yl)oxy]-3-(trifluoromethyl)phenyl}-3-[2-(morpholin-4-yl)ethyl]urea], the 50% inhibitory concentration (IC50) in assay [1] worked out at 124 nM. Besides, in assay [2], the activity at 10 µM came to 5.1% and the activity at 20 µM is less than 1%.
`O=C(NCCN1CCOCC1)Nc1ccc(Oc2ccnc3[nH]cc(C(F)(F)F)c23)c(C(F)(F)F)c1` [Example 1, 1-[2-(morpholin-4-yl)ethyl]-3-[3-(trifluoromethyl)-4-{[3-(trifluoromethyl)-1H-pyrrolo[2,3-b]pyridin-4-yl]oxy}phenyl]urea] yielded a concentration for half-maximal inhibition (IC50) in assay [1] of 69.4 nM. For the same compound, in assay [2], the activity at 10 µM stood at 25.2% and the activity at 20 µM amounted to 5.5%.
The like results for `O=C(NCCCN1CCOCC1)Nc1cc(F)c(Oc2ccnc3[nH]cc(C(F)(F)F)c23)c(C(F)(F)F)c1` [Example 4, 1-[3-fluoro-5-(trifluoromethyl)-4-{[3-(trifluoromethyl)-1H-pyrrolo[2,3-b]pyridin-4-yl]oxy}phenyl]-3-[3-(morpholin-4-yl)propyl]urea] were, in that order, 65 nM, 17% and less than 1%.
The like results for `COc1cc(NC(=O)NCCCN2CCOCC2)ccc1Oc1ccnc2[nH]cc(C(F)(F)F)c12` [Example 11, 1-(3-methoxy-4-{[3-(trifluoromethyl)-1H-pyrrolo[2,3-b]pyridin-4-yl]oxy}phenyl)-3-[3-(morpholin-4-yl)propyl]urea] were, in that order, 315 nM, 68.1% and 53.8%.
The like results for `NC(=O)Nc1ccc(Oc2ccnc3[nH]cc(C(F)(F)F)c23)c(C(F)(F)F)c1` [Example 3, 1-[3-(trifluoromethyl)-4-{[3-(trifluoromethyl)-1H-pyrrolo[2,3-b]pyridin-4-yl]oxy}phenyl]urea] were, in that order, 56.2 nM, 21% and 2.6%.
Take `O=C(NCCN1CCOCC1)Nc1cc(F)c(Oc2ccnc3[nH]cc(C(F)(F)F)c23)c(C(F)(F)F)c1` [Example 5, 1-[3-fluoro-5-(trifluoromethyl)-4-{[3-(trifluoromethyl)-1H-pyrrolo[2,3-b]pyridin-4-yl]oxy}phenyl]-3-[2-(morpholin-4-yl)ethyl]urea]: in assay [1], the IC50 came to 64.6 nM. In addition, in assay [2], the activity at 10 µM was 27.1% and the activity at 20 µM is less than 1%.
The like results for `Cc1ncc(NC(=O)Nc2ccc(Oc3ccnc4[nH]cc(Cl)c34)c(C(F)(F)F)c2)cn1` [Example 10, 1-{4-[(3-chloro-1H-pyrrolo[2,3-b]pyridin-4-yl)oxy]-3-(trifluoromethyl)phenyl}-3-(2-methylpyrimidin-5-yl)urea] were, in that order, 171 nM, 15.9% and less than 1%.
The corresponding values for `NC(=O)Nc1ccc(Oc2ccnc3[nH]cc(Cl)c23)c(C(F)(F)F)c1` [Example 8, 1-{4-[(3-chloro-1H-pyrrolo[2,3-b]pyridin-4-yl)oxy]-3-(trifluoromethyl)phenyl}urea] are 188 nM, 92.7% and 73.6%.
Regarding `O=C(NCCCN1CCOCC1)Nc1ccc(Oc2ccnc3[nH]cc(C(F)(F)F)c23)c(OC(F)(F)F)c1` [Example 12, 1-[3-(morpholin-4-yl)propyl]-3-[3-(trifluoromethoxy)-4-{[3-(trifluoromethyl)-1H-pyrrolo[2,3-b]pyridin-4-yl]oxy}phenyl]urea], in assay [1], the IC50 stood at 469 nM. In assay [2], the activity at 10 µM turned out to be 61.8% and the activity at 20 µM was 23.9%.
In assay [1], `O=C(Nc1ccc(Oc2ccnc3[nH]cc(Cl)c23)c(C(F)(F)F)c1)Nc1cccnn1` [Example 9, 1-{4-[(3-chloro-1H-pyrrolo[2,3-b]pyridin-4-yl)oxy]-3-(trifluoromethyl)phenyl}-3-pyridazin-3-ylurea] came in with an IC50 of 1260 nM.
